These results are taken from patent US7115658B2 (priority 2002, dated 2006).

This assay has as its target T1, Recombinant HCV polymerase (Hepatitis C virus genotype 1b, UniProt P26663).
T1 construct: 2.5 pmoles (0.15 μg) HCV polymerase protein
The experiment in a line: HCV Polymerase Inhibition Assay. To be noted: primer/template-directed transcription, 30 minutes at 30° C.; category symbol. The assay is classed as biochemical. In outline: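 Recombinant genotype 1b polymerase (2.5 pmol) extended biotin-dG12 on poly(rC)300 with 1 μM GTP plus α-32P-GTP, pH 7.2, 30 min at 30 °C, 1% DMSO final; DE-filter-bound product counted. IC50 fitted from triplicate cpm, refitted with enzyme-concentration (30 nM) tight-binding equation when below 200 nM.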

T1 sequence (P26663 2420-3010): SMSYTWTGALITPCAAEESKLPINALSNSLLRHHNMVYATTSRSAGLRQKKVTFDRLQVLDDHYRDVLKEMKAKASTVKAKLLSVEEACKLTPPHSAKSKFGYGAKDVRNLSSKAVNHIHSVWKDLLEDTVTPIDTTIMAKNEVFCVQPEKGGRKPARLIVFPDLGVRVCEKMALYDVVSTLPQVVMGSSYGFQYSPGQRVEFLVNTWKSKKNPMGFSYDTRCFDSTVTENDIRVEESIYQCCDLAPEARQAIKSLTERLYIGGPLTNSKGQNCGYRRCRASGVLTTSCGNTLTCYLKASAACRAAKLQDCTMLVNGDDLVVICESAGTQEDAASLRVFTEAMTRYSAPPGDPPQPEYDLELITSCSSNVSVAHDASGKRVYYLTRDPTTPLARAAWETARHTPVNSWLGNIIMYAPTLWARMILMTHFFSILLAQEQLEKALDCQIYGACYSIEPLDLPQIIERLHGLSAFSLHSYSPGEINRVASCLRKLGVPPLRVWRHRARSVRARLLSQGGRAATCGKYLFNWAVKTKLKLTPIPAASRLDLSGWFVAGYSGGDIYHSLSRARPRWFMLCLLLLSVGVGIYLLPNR

As to `COc1ccc(CCC2(C3CCCC3)CC(O)=C(Sc3nc(C)c(CC(=O)O)s3)C(=O)O2)cc1` (centres unmarked) [Example 112, [2-({6-Cyclopentyl-4-hydroxy-6-[2-(4-methoxyphenyl)ethyl]-2-oxo-5,6-dihydro-2H-pyran-3-yl}thio)-4-methyl-1,3-thiazol-5-yl]acetic acid], the IC50 is under 1 µM.

For `COc1ccc(CCC2(C3CCCC3)CC(=O)C(C(=O)Cc3cccnc3)C(=O)O2)cc1` (centres unmarked) [Example 173, 6-Cyclopentyl-6-[2-(4-methoxy-phenyl)-ethyl]-3-(2-pyridin-3-yl-acetyl)-dihydro-pyran-2,4-dione], the IC50 fell in the range of 1 to 10 µM.

Take `COc1ccc(CCC2(C3CCCC3)CC(=O)C(Oc3ccccc3)C(=O)O2)c(OC)c1` (centres unmarked) [Example 163, 6-Cyclopentyl-6-[2-(2,4-dimethoxy-phenyl)-ethyl]-3-phenoxy-dihydro-pyran-2,4-dione]: the IC50 was in the range of 10 to 50 µM.

Take `COc1cc(OC)c(CCC2(C3CCCC3)CC(O)=C(Sc3nc(O)c4cc[nH]c4n3)C(=O)O2)cc1Cl` (centres unmarked) [Example 105, 6-[2-(5-Chloro-2,4-dimethoxyphenyl)ethyl]-6-cyclopentyl-4-hydroxy-3-[(4-hydroxy-7H-pyrrolo[2,3-d]pyrimidin-2-yl)thio]-5,6-dihydro-2H-pyran-2-one]: the IC50 is under 1 µM.

Regarding `O=C1CC(=O)OC(CCc2ccc(O)cc2)(C2CCCC2)C1` (centres unmarked) [Example 1, 6-Cyclopentyl-6-[2-(4-hydroxyphenyl)ethyl]dihydropyran-2,4-dione], the IC50 is 10 to 50 µM.

For the molecule “6-Cyclopentyl-6-[2-(4-methoxy-phenyl)-ethyl]-3-[2-(3-methyl-isoxazol-5-yl)-acetyl]-dihydro-pyran-2,4-dione [Example 165]”, the IC50 lay in the range of 10 to 50 µM.

For `O=C1C=C(O)CC(CCC2CCCC2)(C2CCCC2)O1` (centres unmarked) [Example 150, 6-Cyclopentyl-6-(2-cyclopentyl-ethyl)-4-hydroxy-5,6-dihydro-pyran-2-one], the IC50 lay in the range of 10 to 50 µM.

Regarding `O=C1CC(=O)OC(CCc2nccs2)(C2CCCC2)C1` (centres unmarked) [Example 12, 6-Cyclopentyl-6-(2-thiazol-2-yl-ethyl)-dihydro-pyran-2,4-dione], the IC50 is over 50 µM.

On to `COc1cc(OC)c(CCC2(C3CCCC3)CC(O)=C(Sc3nccs3)C(=O)O2)cc1Cl` (centres unmarked) [Example 109, 6-[2-(5-Chloro-2,4-dimethoxyphenyl)ethyl]-6-cyclopentyl-4-hydroxy-3-(1,3-thiazol-2-ylthio)-5,6-dihydro-2H-pyran-2-one], for which the IC50 is under 1 µM.

Turning to `CCOc1ccc(CCC2(C3CCCC3)CC(=O)CC(=O)O2)cc1F` (centres unmarked) [Example 71, 6-Cyclopentyl-6-[2-(4-ethoxy-3-fluoro-phenyl)-ethyl]-dihydro-pyran-2,4-dione], the IC50 was under 1 µM.

For `O=C1C=C(O)CC(CC2CCc3ccccc32)(C2CCCC2)O1` (mixture of isomers) [Example 15, 6-Cyclopentyl-4-hydroxy-6-indan-1-ylmethyl-5,6-dihydro-pyran-2-one], the IC50 is over 50 µM.

`COc1ccc(CCC2(C3CCCC3)CC(O)=C(Sc3nc(N)n[nH]3)C(=O)O2)cc1` (centres unmarked) [Example 115, 3-[(3-Amino-1H-1,2,4-triazol-5-yl)thio]-6-cyclopentyl-4-hydroxy-6-[2-(4-methoxyphenyl)ethyl]-5,6-dihydro-2H-pyran-2-one]: the IC50 was in the range of 1 to 10 µM.

Turning to `COc1cc(OC)c(CCC2(C3CCCC3)CC(O)=C(SC3=NCCCN3)C(=O)O2)cc1Cl` (centres unmarked) [Example 110, 6-[2-(5-Chloro-2,4-dimethoxyphenyl)ethyl]-6-cyclopentyl-4-hydroxy-3-(1,4,5,6-tetrahydropyrimidin-2-ylthio)-5,6-dihydro-2H-pyran-2-one], the IC50 was under 1 µM.

In the case of `O=C1O[C@](CCc2cccc(O)c2)(C2CCCC2)CC(O)=C1N(c1ccccc1)c1ccccc1` [Example 156, (S)-6-Cyclopentyl-3-diphenylamino-4-hydroxy-6-[2-(3-hydroxy-phenyl)-ethyl]-5,6-dihydro-pyran-2-one], the IC50 is 10 to 50 µM.

Turning to `CC(C)(C)OC(=O)NCC(C)(C)c1cccc(CCC2(C3CCCC3)CC(=O)CC(=O)O2)c1` (centres unmarked) [Example 14, (2-{3-[2-(2-Cyclopentyl-4,6-dioxo-tetrahydro-pyran-2-yl)-ethyl]-phenyl}-2-methyl-propyl)-carbamic acid tert-butyl ester], the half-inhibitory concentration (IC50) fell in the range of 10 to 50 µM.

On to `COc1ccc(CCC2(C3CCCC3)CC(O)=C(Sc3n[nH]c(-c4ccncc4)n3)C(=O)O2)cc1` (centres unmarked) [Example 111, 6-Cyclopentyl-4-hydroxy-6-[2-(4-methoxyphenyl)ethyl]-3-[(5-pyridin-4-yl-1H-1,2,4-triazol-3-yl)thio]-5,6-dihydro-2H-pyran-2-one], for which the IC50 was under 1 µM.

With `CC(C)(C)c1cc2nc(N)sc2cc1SC1=C(O)CC(C2CCCC2)(C2CCCC2)OC1=O` [Example 183, 3-(2-Amino-5-tert-butyl-benzothiazol-6-ylsulfanyl)-6,6-dicyclopentyl-4-hydroxy-5,6-dihydro-pyran-2-one], the IC50 fell in the range of 10 to 50 µM.

Consider `COc1ccc(CCC2(C3CCCC3)CC(=O)C(C(C)=O)C(=O)O2)cc1` (centres unmarked) [Example 168, 3-Acetyl-6-cyclopentyl-6-[2-(4-methoxy-phenyl)-ethyl]-dihydro-pyran-2,4-dione], for which the IC50 was in the range of 10 to 50 µM.

`COc1ccccc1CCC1(C2CCCC2)CC(=O)CC(=O)O1` (centres unmarked) [Example 4, 6-Cyclopentyl-6-[2-(2-methoxyphenyl)ethyl]dihydropyran-2,4-dione]: the IC50 fell in the range of 10 to 50 µM.

Turning to `Cc1cc(SC2=C(O)CC(CCC3CCCC3)(C3CCCC3)OC2=O)c(C(C)(C)C)cc1CO` (centres unmarked) [Example 145, 3-(2-tert-butyl-4-hydroxymethyl-5-methyl-phenylsulfanyl)-6-cyclopentyl-6-(2-cyclopentyl-ethyl)-4-hydroxy-5,6-dihydro-pyran-2-one], the IC50 fell in the range of 10 to 50 µM.

Regarding `COc1ccc(CCC2(C3CCCC3)CC(=O)CC(=O)O2)cc1C` (centres unmarked) [Example 29, 6-Cyclopentyl-6-[2-(4-methoxy-3-methyl-phenyl)-ethyl]-dihydro-pyran-2,4-dione], the IC50 lay within 1 to 10 µM.

For the molecule `CCOc1ccc(CCC2(C3CCCC3)CC(=O)CC(=O)O2)cc1` (centres unmarked) [Example 25, 6-Cyclopentyl-6-[2-(4-ethoxy-phenyl)-ethyl]-dihydro-pyran-2,4-dione], the concentration for half-maximal inhibition (IC50) was in the range of 1 to 10 µM.

Take `COc1ccc(CCC2(C3CCCC3)CC(O)=C(Sc3nc4nc(C)cc(C)n4n3)C(=O)O2)cc1` (centres unmarked) [Example 92, 6-[2-(4-methoxyphenyl)ethyl]-6-cyclopentyl-3-[(5,7-dimethyl[1,2,4]triazolo[1,5-a]pyrimidin-2-yl)thio]-4-hydroxy-5,6-dihydro-2H-pyran-2-one]: the IC50 is under 1 µM.

On to `CC(=O)c1ccc(CCC2(C3CCCC3)CC(=O)CC(=O)O2)cc1Cl` (centres unmarked) [Example 61, 6-[2-(4-Acetyl-3-chloro-phenyl)-ethyl]-6-cyclopentyl-dihydro-pyran-2,4-dione], for which the IC50 was in the range of 1 to 10 µM.

Take `COc1ccc(CCC2(C3CCCC3)CC(O)=C(Sc3nnnn3CCN(C)C)C(=O)O2)cc1` (centres unmarked) [Example 116, 6-Cyclopentyl-3-({1-[2-(dimethylamino)ethyl]-1H-tetraazol-5-yl}thio)-4-hydroxy-6-[2-(4-methoxyphenyl)ethyl]-5,6-dihydro-2H-pyran-2-one]: the IC50 lay in the range of 1 to 10 µM.

With `CS(=O)(=O)c1ccc(CCC2(C3CCCC3)CC(=O)CC(=O)O2)cc1` (centres unmarked) [Example 28, 6-Cyclopentyl-6-[2-(4-methanesulfonyl-phenyl)-ethyl]-dihydro-pyran-2,4-dione], the IC50 was 1 to 10 µM.

Consider `COc1ccc(OCC2(C3CCCC3)CC(=O)CC(=O)O2)cc1` (centres unmarked) [Example 58, 6-Cyclopentyl-6-(4-methoxy-phenoxymethyl)-dihydro-pyran-2,4-dione], for which the IC50 was over 50 µM.

For `O=C1C=C(O)CC(CCCC2CCCCC2)(C2CCCC2)O1` (centres unmarked) [Example 22, 6-(3-Cyclohexyl-propyl)-6-cyclopentyl-4-hydroxy-5,6-dihydro-pyran-2-one], the IC50 is 10 to 50 µM.

Consider `CC1(c2ccc(CCC3(C4CCCC4)CC(=O)CC(=O)O3)cc2F)OCCO1` (centres unmarked) [Example 60, 6-Cyclopentyl-6-{2-[3-fluoro-4-(2-methyl-[1,3]dioxolan-2-yl)-phenyl]-ethyl}-dihydro-pyran-2,4-dione], for which the IC50 lay in the range of 1 to 10 µM.

Turning to `COc1ccc(CCC2(C3CCCC3)CC3=C(CCCO3)C(=O)O2)c(OC)c1` (centres unmarked) [Example 103, 7-Cyclopentyl-7-[2-(2,4-dimethoxyphenyl)ethyl]-3,4,7,8-tetrahydro-2H,5H-pyrano[4,3-b]pyran-5-one], the IC50 was over 50 µM.

With `O=C1CC(=O)OC(CCc2ccc(OC3CCC3)c(F)c2)(C2CCCC2)C1` (centres unmarked) [Example 56, 6-[2-(4-Cyclobutoxy-3-fluoro-phenyl)-ethyl]-6-cyclopentyl-dihydro-pyran-2,4-dione], the IC50 lay within 1 to 10 µM.

As for `CCCc1ccc(CCC2(C3CCCC3)CC(=O)CC(=O)O2)cc1` (centres unmarked) [Example 55], the IC50 is 1 to 10 µM.

As to `CN(C)S(=O)(=O)c1ccc(CCC2(C3CCCC3)CC(=O)CC(=O)O2)cc1` (centres unmarked) [Example 76, 4-[2-(2-Cyclopentyl-4,6-dioxo-tetrahydro-pyran-2-yl)-ethyl]-dimethyl-benzenesulfonamide], the IC50 is 10 to 50 µM.

With `COc1cc(OC)c(CCC2(C3CCCC3)CC(O)=C(Sc3nnnn3CCN(C)C)C(=O)O2)cc1Cl` (centres unmarked) [Example 107, 6-[2-(5-Chloro-2,4-dimethoxyphenyl)ethyl]-6-cyclopentyl-3-({1-[2-(dimethylamino)ethyl]-1H-tetraazol-5-yl}thio)-4-hydroxy-5,6-dihydro-2H-pyran-2-one], the IC50 is under 1 µM.

Regarding `Cc1cc(C)n2nc(SC3=C(O)CC(CCc4ccc(OCc5ccccc5)cc4)(C4CCCC4)OC3=O)nc2n1` (centres unmarked) [Example 122, 6-{2-[4-(Benzyloxy)phenyl]ethyl}-6-cyclopentyl-3-[(5,7-dimethyl[1,2,4]triazolo[1,5-a]pyrimidin-2-yl)thio]-4-hydroxy-5,6-dihydro-2H-pyran-2-one], the IC50 is under 1 µM.

The IC50 is the midpoint of a concentration-inhibition curve.
